Read-outs that look alike come from different tables or passages of the source.
Assays:
[1] = biological target: T1, human GIP receptor (hGIPR) (Homo sapiens, UniProt P48546); assay: [125I]-GIP binding, SPA with membranes of CHO cells expressing hGIPR; conditions: human GIPR; geometric mean (SEM, n); read-out: Binding Affinity Ki, nM (SEM, n) hGIPR
T1 construct: expressed in transfected cells; crude membranes
T1 sequence (P48546 22-466): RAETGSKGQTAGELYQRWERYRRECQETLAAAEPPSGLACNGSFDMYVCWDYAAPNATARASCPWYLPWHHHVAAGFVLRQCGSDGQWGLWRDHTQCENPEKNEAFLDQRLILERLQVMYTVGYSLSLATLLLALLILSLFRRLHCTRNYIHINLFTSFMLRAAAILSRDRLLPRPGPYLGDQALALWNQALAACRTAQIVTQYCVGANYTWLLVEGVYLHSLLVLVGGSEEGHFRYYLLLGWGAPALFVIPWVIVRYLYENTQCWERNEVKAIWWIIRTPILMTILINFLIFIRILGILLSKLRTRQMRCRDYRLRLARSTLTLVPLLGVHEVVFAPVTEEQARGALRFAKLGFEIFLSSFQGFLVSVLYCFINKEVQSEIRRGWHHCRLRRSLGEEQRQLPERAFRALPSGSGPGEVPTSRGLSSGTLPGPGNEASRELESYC

[2] = biological target: T2, human GLP-1 receptor (hGLP-1R) (Homo sapiens, UniProt P43220); assay: [125I]-GLP-1 binding, SPA with membranes of HEK293 cells expressing hGLP-1R; conditions: human GLP-1R; geometric mean (SEM, n); read-out: Binding Affinity Ki, nM (SEM, n) hGLP-1R
T2 construct: expressed in transfected cells; crude membranes

hGIPR = biological target: T3, hGIPR (Homo sapiens, UniProt P48546); assay: Functional cAMP formation (HTRF) in HEK-293 clonal cells expressing hGIPR, 0.1% bovine casein, without or with 1.0% human serum albumin; type: cell-based; conditions: for EC50: geometric mean, read-out: hGIPR EC50, nM (SEM, n); for Emax: read-out: hGIPR Emax, % ± SEM
T3 construct: expressed in transfected cells
T3 sequence (P48546 22-466): T1 sequence (P48546 22-466)
Method in brief: (§1)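 Readings of the HTRF 665/620 nm ratio, which falls as cAMP rises, were converted to nM cAMP using a standard curve after 30 min peptide exposure at 37° C.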

hGLP-1R = hGLP-1R (Homo sapiens, UniProt P43220); assay: Functional cAMP formation (HTRF) in HEK-293 clonal cells expressing hGLP-1R, 0.1% bovine casein, without or with 1.0% human serum albumin; type: cell-based; design: expressed in transfected cells; conditions: for EC50: geometric mean, read-out: hGLP-1R EC50, nM (SEM, n)
Method in brief: as §1

hGCGR = biological target: T4, hGCGR (Homo sapiens, UniProt P47871); assay: Functional cAMP formation (HTRF) in HEK-293 clonal cells expressing hGCGR, 0.1% bovine casein, without or with 1.0% human serum albumin; type: cell-based; conditions: geometric mean, read-out: hGCGR EC50, nM (SEM, n)
T4 construct: expressed in transfected cells
Method in brief: as §1

[3] = 0.1% bovine casein and 1.0% human serum albumin, 37° C.
[4] = HEK293, 0.1% bovine casein and 1.0% human serum albumin, 37° C., percent of maximal response to GIP(1-42)NH2
[5] = cAMP, incubated at 37° C., 0.1% bovine casein (no human serum albumin)

T2 sequence (P43220 24-463): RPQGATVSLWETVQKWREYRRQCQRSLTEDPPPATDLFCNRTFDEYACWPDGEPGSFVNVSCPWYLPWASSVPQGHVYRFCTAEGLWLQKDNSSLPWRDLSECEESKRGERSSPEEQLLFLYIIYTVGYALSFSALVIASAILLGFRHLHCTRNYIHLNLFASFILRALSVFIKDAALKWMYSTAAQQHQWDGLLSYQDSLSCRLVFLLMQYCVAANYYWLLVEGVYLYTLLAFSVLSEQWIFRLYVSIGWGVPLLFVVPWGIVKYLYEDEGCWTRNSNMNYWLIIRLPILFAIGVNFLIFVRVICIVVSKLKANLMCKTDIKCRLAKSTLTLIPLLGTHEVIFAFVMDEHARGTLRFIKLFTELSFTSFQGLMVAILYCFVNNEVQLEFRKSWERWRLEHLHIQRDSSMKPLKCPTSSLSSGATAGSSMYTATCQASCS
Chain of hGLP-1R (P43220 24-463): as above
T4 sequence (P47871 26-477): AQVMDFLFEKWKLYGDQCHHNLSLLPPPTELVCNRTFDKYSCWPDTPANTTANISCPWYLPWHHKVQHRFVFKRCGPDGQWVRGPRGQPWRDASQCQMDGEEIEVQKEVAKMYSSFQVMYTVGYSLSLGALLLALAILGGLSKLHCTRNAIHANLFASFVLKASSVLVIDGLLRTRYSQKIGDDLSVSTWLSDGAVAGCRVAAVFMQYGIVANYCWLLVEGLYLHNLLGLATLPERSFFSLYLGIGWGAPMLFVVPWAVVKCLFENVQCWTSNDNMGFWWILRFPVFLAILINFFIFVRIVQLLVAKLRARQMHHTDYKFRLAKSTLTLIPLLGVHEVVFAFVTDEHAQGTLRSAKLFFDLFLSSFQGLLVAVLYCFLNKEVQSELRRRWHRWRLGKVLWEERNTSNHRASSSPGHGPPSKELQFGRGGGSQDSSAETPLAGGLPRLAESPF

SMILES | Ki [1] [nM] | Ki [2] [nM] | EC50 (hGIPR; [3]) [nM] | Emax (hGIPR; [4]) [%] | EC50 (hGLP-1R; [3]) [nM] | EC50 (hGLP-1R; [5]) [nM] | EC50 (hGCGR; [3]) [nM] | EC50 (hGCGR; [5]) [nM] | Emax (hGIPR; HEK293, percent of maximal response to GIP(1-42)NH2, 37° C., 0.1% bovine casein, arithmetic mean) [%] | EC50 (hGIPR; [5]) [nM] | Emax (hGLP-1R; HEK293, 0.1% bovine casein and 1.0% human serum albumin, 37° C., percent of maximal response to GLP-1(7-36)NH2, read-out: hGLP-1R Emax, % ± SEM) [%]
CCCCCCCCCCCC(=O)N[C@@H](CCC(=O)NCCOCCOCC(=O)NCCOCCOCC(=O)NCCCC[C@H](NC(=O)CNC(=O)CNC(=O)[C@H](CCC(=O)O)NC(=O)[C@@H](NC(=O)[C@H](CC(C)C)NC(=O)[C@](C)(Cc1ccc(O)cc1)NC(=O)[C@@H](CCC(=O)O)NC(=O)[C@@H](NC(=O)[C@H](Cc1ccccc1)NC(=O)[C@H](CCC(=O)O)NC(=O)C(C)(C)NC(=O)[C@H](CCC(N)=O)NC(=O)[C@H](C)NC(=O)[C@H](CCCCNC(=O)COCCOCCNC(=O)COCCOCCNC(=O)CC[C@H](NC(=O)CCCCCCCCCCC)C(=O)O)NC(=O)[C@H](CCCN)NC(=O)[C@H](CC(=O)O)NC(=O)[C@H](CC(C)C)NC(=O)[C@](C)(CC(C)C)NC(=O)[C@@H](NC(=O)[C@H](CO)NC(=O)[C@H](Cc1ccncc1)NC(=O)[C@H](CC(=O)O)NC(=O)[C@H](CO)NC(=O)[C@@H](NC(=O)[C@](C)(Cc1ccccc1F)NC(=O)[C@@H](NC(=O)CNC(=O)[C@H](CCC(=O)O)NC(=O)C(C)(C)NC(=O)[C@@H](N)Cc1ccc(O)cc1)[C@@H](C)O)[C@@H](C)O)[C@@H](C)CC)[C@@H](C)CC)[C@@H](C)CC)C(=O)N[C@@H](CO)C(=O)N[C@@H](CO)C(=O)NCC(=O)N[C@@H](C)C(=O)N1CCC[C@H]1C(=O)N1CCC[C@H]1C(=O)N1CCC[C@H]1C(=O)N[C@@H](CO)C(N)=O)C(=O)O [Example 5] | 0.0309 | 0.154 | 0.372 | 91.2 ± 3.65 | 4.78 | 0.057 | > 9950 | > 9150 |  |  | 
CCCCCCCCCCCCCCCC(=O)N[C@@H](CCC(=O)NCCOCCOCC(=O)NCCCC[C@H](NC(=O)CNC(=O)CNC(=O)[C@H](CCC(=O)O)NC(=O)[C@@H](NC(=O)[C@H](CC(C)C)NC(=O)[C@](C)(Cc1ccc(O)cc1)NC(=O)[C@@H](CCC(=O)O)NC(=O)[C@@H](NC(=O)[C@H](Cc1ccccc1)NC(=O)[C@H](CCC(=O)O)NC(=O)C(C)(C)NC(=O)[C@H](CCC(N)=O)NC(=O)[C@H](C)NC(=O)[C@H](CCCCNC(=O)COCCOCCNC(=O)CC[C@H](NC(=O)CCCCCCCCCCCCCCC)C(=O)O)NC(=O)[C@H](CCCN)NC(=O)[C@H](CC(=O)O)NC(=O)[C@H](CC(C)C)NC(=O)[C@](C)(CC(C)C)NC(=O)[C@@H](NC(=O)[C@H](CO)NC(=O)[C@H](Cc1ccncc1)NC(=O)[C@H](CC(=O)O)NC(=O)[C@H](CO)NC(=O)[C@@H](NC(=O)[C@](C)(Cc1ccccc1F)NC(=O)[C@@H](NC(=O)CNC(=O)[C@H](CCC(=O)O)NC(=O)C(C)(C)NC(=O)[C@@H](N)Cc1ccc(O)cc1)[C@@H](C)O)[C@@H](C)O)[C@@H](C)CC)[C@@H](C)CC)[C@@H](C)CC)C(=O)N[C@@H](CO)C(=O)N[C@@H](CO)C(=O)NCC(=O)N[C@@H](C)C(=O)N1CCC[C@H]1C(=O)N1CCC[C@H]1C(=O)N1CCC[C@H]1C(=O)N[C@@H](CO)C(N)=O)C(=O)O [Example 13] | 0.0575 | 0.691 | 1.45 |  | 6.79 |  | > 9950 | > 9950 |  |  | 
CCCCCCCCCCCCCCCC(=O)N[C@@H](CCC(=O)NCCOCCOCC(=O)NCCOCCOCC(=O)NCCCC[C@H](NC(=O)[C@H](CCCN)NC(=O)[C@H](CC(=O)O)NC(=O)[C@H](CC(C)C)NC(=O)[C@](C)(CC(C)C)NC(=O)[C@@H](NC(=O)[C@H](CO)NC(=O)[C@H](Cc1ccncc1)NC(=O)[C@H](CC(=O)O)NC(=O)[C@H](CO)NC(=O)[C@@H](NC(=O)[C@](C)(Cc1ccccc1F)NC(=O)[C@@H](NC(=O)CNC(=O)[C@H](CCC(=O)O)NC(=O)C(C)(C)NC(=O)[C@@H](N)Cc1ccc(O)cc1)[C@@H](C)O)[C@@H](C)O)[C@@H](C)CC)C(=O)N[C@@H](C)C(=O)N[C@@H](CCC(N)=O)C(=O)NC(C)(C)C(=O)N[C@@H](CCC(=O)O)C(=O)N[C@@H](Cc1ccccc1)C(=O)N[C@H](C(=O)N[C@H](CCC(=O)O)C(=O)N[C@@](C)(Cc1ccc(O)cc1)C(=O)N[C@@H](CC(C)C)C(=O)N[C@H](C(=O)N[C@@H](CCCCNC(=O)COCCOCCNC(=O)COCCOCCNC(=O)CC[C@H](NC(=O)CCCCCCCCCCCCCCC)C(=O)O)C(=O)NCC(=O)NCC(=O)N1CCC[C@H]1C(=O)N[C@@H](CO)C(=O)N[C@@H](CO)C(=O)NCC(=O)N[C@@H](C)C(=O)N1CCC[C@H]1C(=O)N1CCC[C@H]1C(=O)N1CCC[C@H]1C(=O)N[C@@H](CO)C(N)=O)[C@@H](C)CC)[C@@H](C)CC)C(=O)O [Example 23] | 0.0238 | 0.251 | 0.623 | 95.3 ± 0.863 | 1.98 |  | > 9950 | > 9950 |  |  | 
CCCCCCCCCCCCCCCC(=O)N[C@@H](CCC(=O)NCCOCCOCC(=O)NCCOCCOCC(=O)NCCCC[C@H](NC(=O)[C@H](CCCN)NC(=O)[C@H](CC(=O)O)NC(=O)[C@H](CC(C)C)NC(=O)[C@](C)(CC(C)C)NC(=O)[C@@H](NC(=O)[C@H](CO)NC(=O)[C@H](Cc1ccncc1)NC(=O)[C@H](CC(=O)O)NC(=O)[C@H](CO)NC(=O)[C@@H](NC(=O)[C@](C)(Cc1ccccc1F)NC(=O)[C@@H](NC(=O)CNC(=O)[C@H](CCC(=O)O)NC(=O)C(C)(C)NC(=O)[C@@H](N)Cc1ccc(O)cc1)[C@@H](C)O)[C@@H](C)O)[C@@H](C)CC)C(=O)N[C@@H](C)C(=O)N[C@@H](CCC(N)=O)C(=O)NC(C)(C)C(=O)N[C@@H](CCC(=O)O)C(=O)N[C@@H](Cc1ccccc1)C(=O)N[C@H](C(=O)N[C@H](CCC(=O)O)C(=O)N[C@@](C)(Cc1ccc(O)cc1)C(=O)N[C@@H](CC(C)C)C(=O)N[C@H](C(=O)N[C@@H](CCC(=O)O)C(=O)NCC(=O)N[C@@H](CCCCNC(=O)COCCOCCNC(=O)COCCOCCNC(=O)CC[C@H](NC(=O)CCCCCCCCCCCCCCC)C(=O)O)C(=O)N1CCC[C@H]1C(=O)N[C@@H](CO)C(=O)N[C@@H](CO)C(=O)NCC(=O)N[C@@H](C)C(=O)N1CCC[C@H]1C(=O)N1CCC[C@H]1C(=O)N1CCC[C@H]1C(=O)N[C@@H](CO)C(N)=O)[C@@H](C)CC)[C@@H](C)CC)C(=O)O [Example 24] | 0.0361 | 0.52 |  | 92.4 ± 5.97 | 2.04 | 0.0063 | > 9950 | > 9950 |  |  | 
CC[C@H](C)[C@H](NC(=O)[C@H](CC(C)C)NC(=O)[C@](C)(Cc1ccc(O)cc1)NC(=O)[C@@H](CCC(=O)O)NC(=O)[C@@H](NC(=O)[C@H](Cc1ccccc1)NC(=O)[C@H](CCC(=O)O)NC(=O)C(C)(C)NC(=O)[C@H](CCC(N)=O)NC(=O)[C@H](C)NC(=O)[C@H](CCCCNC(=O)COCCOCCNC(=O)COCCOCCNC(=O)CC[C@H](NC(=O)CCCCCCCCCCCCC(=O)O)C(=O)O)NC(=O)[C@H](CCCN)NC(=O)[C@H](CC(=O)O)NC(=O)[C@H](CC(C)C)NC(=O)[C@](C)(CC(C)C)NC(=O)[C@@H](NC(=O)[C@H](CO)NC(=O)[C@H](Cc1ccc2ccccc2c1)NC(=O)[C@H](CC(=O)O)NC(=O)[C@H](CO)NC(=O)[C@@H](NC(=O)[C@](C)(Cc1ccccc1F)NC(=O)[C@@H](NC(=O)CNC(=O)[C@H](CCC(=O)O)NC(=O)C(C)(C)NC(=O)[C@@H](N)Cc1ccc(O)cc1)[C@@H](C)O)[C@@H](C)O)[C@@H](C)CC)[C@@H](C)CC)C(=O)N[C@@H](CCC(=O)O)C(=O)NCC(=O)NCC(=O)N[C@@H](CCCCNC(=O)COCCOCCNC(=O)COCCOCCNC(=O)CC[C@H](NC(=O)CCCCCCCCCCCCC(=O)O)C(=O)O)C(=O)N[C@@H](CO)C(=O)N[C@@H](CO)C(=O)NCC(=O)N[C@@H](C)C(=O)N1CCC[C@H]1C(=O)N1CCC[C@H]1C(=O)N1CCC[C@H]1C(=O)N[C@@H](CO)C(N)=O [Example 57] | 0.297 | 4.35 |  | 92.1 ± 5.54 |  | 0.14 | > 9950 | > 9950 | 91.5 ± 4.94 | 0.0135 | 114 ± 7.39
